“And” between values parts separate entries of the source, which are not always exact repeats. Identical values can stand only once.
Experiments:
Staphylococcus aureus = experiment: MIC assay (microdilution); format: cell-based
[1] = system: Staphylococcus epidermidis; experiment: MIC assay (microdilution); format: cell-based
Streptococcus pyogenes = experiment: MIC assay (microdilution); format: cell-based; conditions: lactate solutions, nanocrystalline silver = range for 12 samples
Streptococcus pneumoniae = experiment: MIC assay (microdilution); format: cell-based; conditions: lactate solutions, nanocrystalline silver = range for 12 samples
Pseudomonas aeruginosa = experiment: MIC assay (microdilution); format: cell-based
Klebsiella pneumoniae = experiment: MIC assay (microdilution); format: cell-based; conditions: K. pneumoniae NP403 (listed twice)
Serratia marcescens = experiment: MIC assay (microdilution); format: cell-based
Escherichia coli = experiment: MIC assay (microdilution); format: cell-based
Shigella flexneri = experiment: MIC assay (microdilution); format: cell-based; conditions: Shigella flexneri ATCC 12022
[2] = system: Mycobacterium tuberculosis H37Ra (ATCC 25177); format: cell-based
Staph. aureus = experiment: Minimal bactericidal concentration (MBC) assay; format: cell-based, Staphylococcus aureus
Protocol: (§1) Minimal bactericidal concentration (MBC) assay—Overnight-grown MIC plates, prepared as described in Example 16, were evaluated to determine the MIC. Culture was then sampled from wells at and near the MIC using sterile inoculating loops, and transferred to fresh MHA plates to determine if viable bacteria remained. […] The MBC was determined as the well in the MIC plate which contained the lowest concentration of silver yielding no bacterial growth on the MHA plate.

Ps. aeruginosa = experiment: Minimal bactericidal concentration (MBC) assay; format: cell-based, Pseudomonas aeruginosa; conditions: Ps. aeruginosa 27317 (ATCC type strain)
Protocol: as §1

K. pneumoniae = experiment: Minimal bactericidal concentration (MBC) assay; format: cell-based, Klebsiella pneumoniae; conditions: K. pneumoniae NP403 (listed twice)
Protocol: as §1

Ser. marcescens = experiment: Minimal bactericidal concentration (MBC) assay; format: cell-based, Serratia marcescens
Protocol: as §1

E. coli = experiment: Minimal bactericidal concentration (MBC) assay; format: cell-based, Escherichia coli
Protocol: as §1

Staph epidermidis = experiment: Minimal bactericidal concentration (MBC) assay; format: cell-based, Staphylococcus epidermidis; conditions: Staph epidermidis 12228 (ATCC type strain)
Protocol: as §1

[3] = Staph. aureus 6538 (ATCC type strain)
[4] = Staph. aureus 700699 (ATCC type strain)
[5] = Ser. marcescens NP402 (listed twice)
[6] = Ser. marcescens NP408 (listed twice)
[7] = E. coli 8739 (ATCC type strain)
[8] = E. coli 43745 (ATCC type strain)

SMILES: O=[N+]([O-])[O-].[Ag+] [AgNO3, silver nitrate]
- MIC (Staphylococcus aureus; S. aureus (ATCC), lactate solutions, nanocrystalline silver = range for 12 samples): 11 µg/mL
- MIC (Staphylococcus aureus; S. aureus (clin.), lactate solutions, nanocrystalline silver = range for 12 samples): 5 µg/mL
- MIC (Staphylococcus aureus; [3]): 6 parts silver per million
- MIC (Staphylococcus aureus; [4]): 3 parts silver per million
- MIC ([1]; S. epiderm (ATCC), lactate solutions, nanocrystalline silver = range for 12 samples): 3 µg/mL
- MIC ([1]; Staph epidermidis 12228 (ATCC type strain)): 3 parts silver per million
- MIC (Streptococcus pyogenes; S. pyog (clin. 303)): 3 µg/mL
- MIC (Streptococcus pyogenes; S. pyog (clin. 304)): 5 µg/mL
- MIC (Streptococcus pneumoniae; S. pneumo (clin 314)): 11 µg/mL
- MIC (Streptococcus pneumoniae; S. pneumo (clin 315)): 21 µg/mL
- MIC (Pseudomonas aeruginosa; P. aerug (ATCC), lactate solutions, nanocrystalline silver = range for 12 samples): 3 µg/mL
- MIC (Pseudomonas aeruginosa; P. aerug. (clin.), lactate solutions, nanocrystalline silver = range for 12 samples): 3 µg/mL
- MIC (Pseudomonas aeruginosa; P. aeruginosa isolate NP212, formulation type Lactate): 2 ppm
- MIC (Pseudomonas aeruginosa; P. aeruginosa isolate NP212, formulation type Water/Lecithin): 3 ppm
- MIC (Pseudomonas aeruginosa; P. aeruginosa isolate NP212, formulation type Water/PVA): 3 ppm
- MIC (Pseudomonas aeruginosa; Ps. aeruginosa 9027 (ATCC type strain)): 1 parts silver per million
- MIC (Pseudomonas aeruginosa; Ps. aeruginosa 27317 (ATCC type strain)): 2 parts silver per million
- MIC (Klebsiella pneumoniae): 6 parts silver per million
- MIC (Serratia marcescens; [5]): 6 parts silver per million
- MIC (Serratia marcescens; [6]): 6 parts silver per million and 11 parts silver per million
- MIC (Escherichia coli; [7]): 0.4 parts silver per million
- MIC (Escherichia coli; [8]): 1 parts silver per million
- MIC (Escherichia coli; E. coli (ATCC), lactate solutions, nanocrystalline silver = range for 12 samples): 3 µg/mL
- MIC (Shigella flexneri; formulation type Lactate): 2 ppm
- MIC (Shigella flexneri; formulation type Water/Lecithin): 2 ppm
- MIC (Shigella flexneri; formulation type Water/PVA): 1 ppm
- minimum inhibitory concentration (MIC) [2]: 2.5 μg/ml silver
- MBC (Staph. aureus; [3]): 6 parts silver per million
- MBC (Staph. aureus; [4]): 6 parts silver per million
- MBC (Ps. aeruginosa): 3 parts silver per million
- MBC (K. pneumoniae): 6 parts silver per million and 3 parts silver per million
- MBC (Ser. marcescens; [5]): 6 parts silver per million
- MBC (Ser. marcescens; [6]): 6 parts silver per million and 11 parts silver per million
- MBC (E. coli; [7]): 0.4 parts silver per million
- MBC (E. coli; [8]): 0.4 parts silver per million
- MBC (Staph epidermidis): 3 parts silver per million
